Here are results for three substances from patent US20150250864A1, “ANTI-CANCER VACCINES” (Board of Regents, The University of Texas System, priority 2012, published 2015).

Common to all, as to format: cell-based, human
For assay [1], the system named is T cells in PBMCs. The experiment in a line: IL-2 release by ELISA from PBMC stimulated with peptides or protein. As to conditions: normal donors vs cancer patients. The text has this: (§1) FIG. 19. T cell stimulation by HERV-K peptides. Peptides (p73-76 and p18-135) or HERV-K SU fusion proteins were used to stimulate PBMC and evaluated in vitro for their ability to stimulate T cells in PBMCs from healthy subjects and/or cancer patients, based on Granzyme B (Top panel) and interlukin-2 (IL-2; bottom panel) release by ELISA. OD values of Granzyme B or IL-2 release were compared between normal donors (ND427478, ND329966, and ND341277) and cancer patients (BC243 and OC212).
(§2) Cancer patients were enrolled to evaluate HERV-K as a tumor associated antigen target. Patients provided written informed consent as part of an approved protocol (LAB04-0083) at MD Anderson Cancer Center prior to commencing the studies. […] HLA-A*02 expression in PBMCs obtained from cancer patients and healthy subjects was determined by flow cytometry with PE Mouse anti-human HLA-A2 mAb BB7.2 (BD Pharmingen; San Diego, Calif., USA). […] After 14 days of culture, the supernatants from cell culture media (PBMC pulsed with peptides or proteins) were harvested and tested for their ability to produce IFN-gamma or IL-2, and granzyme B release was also determined by enzyme-linked immunosorbent assay (ELISA) assay. […] Absorbance was measured after 10 min of incubation in the dark and the plate was read on a Wallac Victor 2 V Microplate Reader (PerkinElmer, Waltham, Mass.). […]
Background: In an ELISA, binding on a coated surface is turned into a signal by an enzyme label.

Assay [2] relates to T cells in PBMCs. The experiment in a line: Granzyme B release by ELISA from PBMC stimulated with peptides or protein. As to conditions: breast cancer patient (BC243) vs 3 normal donors.
Excerpt: as §1, §2

The test system of assay [3] is T cells in PBMCs. The assay can be described thus: IFN-γ release by ELISA from PBMC stimulated with peptides or protein. As to conditions: for IFN-γ release (OD values): stimulated PBMC, FIG. 21A. The text has this: FIG. 17. T cell stimulation by HERV-K peptides. Peptides (p73-76 and p18-135) or HERV-K SU fusion proteins were used to stimulate PBMC and evaluated in vitro for their ability to stimulate T cells in PBMCs from healthy subjects (ND1007083; left) and/or cancer patients (BC 243; right), based on interferon-γ(IFN-γ) release by ELISA. KLH peptide and GST protein were used as controls. Other negative controls included media only, DMSO, and PBS.
FIG. 18. T cell stimulation by HERV-K peptides. Peptides (p73-76: left; and p18-135: middle) or HERV-K SU fusion proteins (right) were used to stimulate PBMC and evaluated in vitro for their ability to stimulate T cells in PBMCs from healthy subjects and/or cancer patients (BC 243; middle), based on interferon-γ (IFN-γ) release by ELISA. OD values of interferon-γ (IFN-γ) release were compared between normal donors (ND447549, ND1001366, and ND1007083) and cancer patients (OC222, OC 210, OC212, and BC243). OC is ovarian cancer and BC is breast cancer
FIGS. 21A-C. T Cell Stimulation. 9 mer Peptides (HERVK-3, HERVK-4, HERVK-11, and HERVK-18; see Table 1), p73-76 and p18-135 (Table 1 178 and 179), or HERV-K SU fusion proteins were used to stimulate PBMC and evaluated in vitro for their ability to stimulate T cells in PBMCs from healthy subjects and/or cancer patients, based on IFN-γ and Granzyme B release by ELISA. (FIG. 21A) OD values of IFN-γ release were compared in a normal donor (ND291812). (FIG. 21B) OD values of IFN-γ release were compared between a normal donor (ND291817) and an ovarian cancer patient (OC153). (FIG. 21C) OD values of Granzyme B release were compared between a normal donor (ND291817) and an ovarian cancer patient (OC153). Each dot represents an individual clone. Negative controls measured release of effector molecules from cancer cells after treatment with supernatants obtained from PBMCs without stimulation with HERV-K peptides or protein; positive controls were stimulated with PMA/ONO.
Cancer patients were enrolled to evaluate HERV-K as a tumor associated antigen target. Patients provided written informed consent as part of an approved protocol (LAB04-0083) at MD Anderson Cancer Center prior to commencing the studies. Normal healthy donor control blood samples were obtained from Gulf Coast Regional Blood Center, Houston Tex. 40 mL of peripheral blood was obtained from each patient, and peripheral blood mononuclear cells (PBMCs) were isolated by density gradient centrifugation using Histopaque-1077 (Sigma-Aldrich; USA). HLA-A*02 expression in PBMCs obtained from cancer patients and healthy subjects was determined by flow cytometry with PE Mouse anti-human HLA-A2 mAb BB7.2 (BD Pharmingen; San Diego, Calif., USA). Mouse IgG2b was used as an isotype control. PBMCs (5×10^5 cells/well) from either healthy subjects or cancer patients were incubated with Peptide #18-135 ([…]; SEQ ID NO: 178), Peptide #73-76 ([…]; SEQ ID NO: 179) or KLH as control peptide) or proteins (HERV-K env SU protein or GST protein as control) at concentrations of 40 μg/mL in 96-well U-bottom microplates (BD; Franklin Lakes, N.J., USA) in 100 μL of T-cell medium (TCM), consisting of RPMI 1640 (Mediatech; Manassas, Va., USA), 10% human AB serum (Valley Biomedical, Winchester, USA), […] 2-mercaptoethanol, 100 IU/mL interleukin-2 (IL-2), and 0.1 mM MEM nonessential amino acid solution (Invitrogen; Grand Island, N.Y., USA). Half of the TCM was removed and replaced with fresh TCM containing peptides (20 μg/mL) on day 7. After 14 days of culture, the supernatants from cell culture media (PBMC pulsed with peptides or proteins) were harvested and tested for their ability to produce IFN-gamma or IL-2, and granzyme B release was also determined by enzyme-linked immunosorbent assay (ELISA) assay. In order to detect the secreted cytokine in this assay, high-binding plates were coated with 5 μg/ml anti-IFN-γ (Mabtech, Stockholm, Sweden) diluted in PBS buffer at 4° C. overnight. […]

Assay [4] concerns IVS cells. The experiment in a line: IFN-γ ELISPOT of IVS cells stimulated with HERV-K SU or TM antigen. As to conditions: ovarian cancer patient compared with normal female donor(s). The text has this:
FIGS. 2A-D. IFN-γ ELISPOT was used to determine HERV-K-specific T cell response. (FIG. 2A) More spots (red box) were detected in IVS cells (DC+KSU) from an ovarian cancer patient with moderately to poorly differentiated adenocarcinoma, in comparison to three normal female donors (ND263559, 273010, and 273011; black boxes) stimulated with a single HERV-K SU protein. […] (FIG. 2B) More spots (red box for KSU and green box for KTM) were detected in IVS cells (DC+KSU) from an ovarian cancer patient (Acc 153) with high grade papillary serous carcinoma before surgery (0 month) or after surgery (6 months), compared to one normal donor (ND 273011) stimulated one time with HERV-K SU protein. IVS cells were generated from PBMC stimulated with a single HERV-K SU or TM antigen. No spot was detected in controls using KLH as antigen. (FIG. 2C) IFN-γ spots were detected in IVS cells (1×10^5 cells loaded) from cancer patients (#816463 and #618329: blood collected 6 months after surgery) but not in a breast cancer patient with invasive ductal carcinoma (#814349, collected 6 months after surgery) or a patient (717335) with a mass (no malignancy identified), stimulated one time with either HERV-K SU (surface domain of env protein) or TM (transmembrane domain) protein. DC pulsed with KLH served as control. […]

For the substance “IINLILILVCLFCLLLVCRCTQQLR [Peptide #18-135]”, the IL-2 release result in assay [1] is “in normal donors to a greater extent than in cancer patients”. Further, in assay [2], the “granzyme B release” value is given as “to a greater extent than in 3 normal donors”. Also, the IFN-γ release entry in assay [3] (peripheral T cells from both healthy subjects (ND1007083) and cancer patients (BC 243)) is given as “induce IFN-γ release”. In addition, the “IFN-γ release (OD values)” value in assay [3] was “Higher IFN-γ release”.
Regarding “SQTITCENCRLLSCIDSTFNWQHRILL [Peptide #73-76]”, the IL-2 release result in assay [1] is listed as “in normal donors to a greater extent than in cancer patients”. The “granzyme B release” value in assay [2] is “to a greater extent than in 3 normal donors”. The IFN-γ release entry in assay [3] (peripheral T cells from most cancer patients (OC222, OC210, OC212, BC 243)) is recorded as “induce IFN-γ release”. Further, in assay [3], the “IFN-γ release (OD values)” value was “Higher IFN-γ release”.
As for keyhole limpet hemocyanin [KLH], in assay [4], the “number of IFN-γ spots in IVS cells” value was “No spots were detected”.
